# Assay results: patent US10093654B2, “Therapeutically active compounds and their methods of use” (Agios Pharmaceuticals, Inc., priority 2013, dated 2018)
# Tests used:
# [1] = target: breast cancer resistance protein (BCRP) (Homo sapiens, UniProt Q9UNQ0); test: BCRP inhibition; format: in vitro ADME
# [2] = test system: advanced hematologic malignancies that harbor an IDH2 mutation; test: Phase 1 clinical study, clinical activity (response to treatment); format: in vivo, human
# Method: Subjects will have the extent of their disease assessed, including bone marrow biopsies and/or aspirates and peripheral blood, at screening, on Day 15, Day 29 and Day 57, and every 56 days thereafter while on study drug treatment, independent of dose delays and/or dose interruptions, and/or at any time when progression of disease is suspected. Response to treatment is determined by the Investigators based on modified International Working Group (IWG) response criteria for acute myelogenous leukemia (AML).
# Serial blood and bone marrow sampling is evaluated during the clinical study to determine response to treatment based on modified IWG response criteria in AML.
# Disease response to treatment is assessed through the evaluation of bone marrow aspirates and biopsies, along with complete blood counts and examination of peripheral blood films. Subjects have the extent of their disease assessed and recorded at screening, on Days 15, 29, and 57, every 56 days thereafter while on study drug treatment, independent of dose-delays and/or dose interruptions, and/or at any time when progression of disease is suspected. An assessment also is conducted at the End of Treatment visit for subjects who discontinue the study due to reasons other than disease progression.
# Bone marrow aspirates and biopsies are to be obtained at screening, Day 15, Day 29, Day 57, every 56 days thereafter independent of dose delays and/or interruptions, at any time when progression of disease is suspected, and at the End of Treatment visit. Bone marrow aspirates and core sampling should be performed according to standard of care and analyzed at the local site's laboratory in accordance with the International Council for Standardization in Hematology (ICSH) Guidelines (Lee S H, et al. Int J Lab Hematol. 2008; 30(5):349-64). Bone marrow core biopsies and aspirate are to be evaluated for morphology, flow cytometry, and for karyotype to assess potential clinical activity. Aliquots of the bone marrow and/or peripheral blood blast cells also are evaluated at central laboratories for 2-HG levels, gene expression profiles, histone and DNA methylation patterns, and metabolomic profiling. Peripheral blood for the evaluation of leukemic blast cells is to be obtained at screening, Day 15, Day 29, Day 57, every 56 days thereafter independent of dose delays and/or interruptions, at any time when progression of disease is suspected, and at the End of Treatment visit. Cell counts and flow cytometry are used to assess the state of differentiation of blast cells collected from bone marrow and peripheral blood. Side scatter also is analyzed to determine the complexity of the blast cells in response to compound 1.
# The following criteria outlined in Table 5 and Table 6 are used to assess response to treatment.
# Sequence of breast cancer resistance protein (BCRP) (Q9UNQ0 whole entry): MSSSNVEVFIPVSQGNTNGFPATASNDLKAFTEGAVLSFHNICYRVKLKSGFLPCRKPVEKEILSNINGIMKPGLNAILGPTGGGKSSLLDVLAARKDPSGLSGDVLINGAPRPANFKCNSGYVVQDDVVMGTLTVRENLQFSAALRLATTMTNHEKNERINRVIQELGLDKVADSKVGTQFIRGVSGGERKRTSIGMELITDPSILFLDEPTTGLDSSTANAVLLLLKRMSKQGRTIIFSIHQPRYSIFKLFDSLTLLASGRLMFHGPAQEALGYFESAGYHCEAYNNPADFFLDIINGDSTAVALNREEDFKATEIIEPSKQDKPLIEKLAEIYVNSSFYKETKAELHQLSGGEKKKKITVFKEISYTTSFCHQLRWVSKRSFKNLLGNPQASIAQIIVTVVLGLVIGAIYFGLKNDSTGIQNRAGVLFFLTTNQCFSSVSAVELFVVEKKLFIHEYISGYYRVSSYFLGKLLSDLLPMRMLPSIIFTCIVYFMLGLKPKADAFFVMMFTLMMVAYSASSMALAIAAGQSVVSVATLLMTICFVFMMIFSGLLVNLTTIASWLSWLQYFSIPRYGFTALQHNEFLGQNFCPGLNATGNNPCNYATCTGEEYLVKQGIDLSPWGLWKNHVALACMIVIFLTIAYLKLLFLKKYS
substance,measurement,setting,value
"2-Methyl-1-[(4-[6-(trifluoromethyl)pyridin-2-yl]-6-{[2-(trifluoromethyl)pyridin-4-yl]amino}-1,3,5-triazin-2-yl)amino]propan-2-ol methanesulfonate [compound 1]",BCRP inhibition,[1]; 5 μM,100%
same,BCRP inhibition,[1]; 100 μM,100%
same,Response (Cycle),"[2]; Table 4, Cohort 1, 30 mg orally twice daily, per AML patient",CRp
same,Response (Cycle),"[2]; Table 4, Cohort 2, 50 mg orally twice daily, per AML patient",CRp
same,Response (Cycle),"[2]; Table 7, Cohort 1, 30 mg orally twice daily, per patient",CRp
same,Response (Cycle),"[2]; Table 7, Cohort 2, 50 mg orally twice daily, per patient",Cri
same,Response (Cycle),"[2]; Table 7, Cohort 5, 100 mg orally twice daily, per patient",CRp
same,neutrophil counts,[2]; by cycle 1 day 15,increase
same,white blood cell counts and neutrophil counts,[2]; by cycle 2 day 15 in patients with a response,in normal range
same,patients with progressive disease,[2]; of a total 35 patients,6
same,patients with stable disease,[2]; of a total 35 patients,5
